Reference: patent publication US7968607B2, “Skin pore minimizers and skin elasticity improvers” (Koa Corporation, priority 2000, dated 2011)
Where a name gives a salt, the structure may show the parent alone. Read-outs that look alike come from different tables or passages of the source.

Experiments:
[1] = system: keratinocytes ("NHEK 6306", Clonetics); assay: Contraction of collagen gel seeded with keratinocytes; type: cell-based, human; settings: 1 hour after addition, area inside contracted ring, control (gel peeling alone) = 100
Procedure: • 1) After type I collagen (“Cellmatrix Type I-A”, Nitta Gelatin), “MCDB 153 medium” (Sigma Chemical Co.), 20 mM HEPES (Wako Pure Chemical Industries) and purified water were thoroughly mixed under ice cooling, 500 μL per well were added to a 24-well plate (Falcon), followed by warming at 37° C. in an incubator to effect gelation. Using MCDB 153 medium, 1 mL aliquots of keratinocytes (“NHEK 6306”, Clonetics) were seeded at 2×10^4 cells/cm^2 onto the collagen gels, respectively. Subsequent to incubation for 24 hours, the collagen gels were peeled off with a pipette tip from the culture dishes. Shortly after that, test substances prepared to a concentration as high as 100 times the final concentration were added 10 μL by 10 μL. Upon elapsed time of 1 hour after the addition, the gels were photographed using a “Minolta α707-si Camera” with “50 Macrolens”. Subsequent to development of the pictures, contracted rings were copied onto OHP sheets, the areas inside the contracted rings were determined by image analysis software, “Image-Pro PLUS” (Media Cybanetics, Inc.), and contraction ratios (%) were calculated supposing that the contraction ratio (%) of a control (gel peeling alone) was 100.

[2] = system: human skin fibroblasts (derived from a human fore skin); assay: Collagen gel tightening promoting ability (fibroblast-embedded collagen gel, dermis model); type: cell-based; settings: for activity at 15 µM / activity at 50 µM: read-out: Average gel volume
Procedure: Measurement was conducted on the ability to promote the tightening of a fibroblast-embedded collagen gel as a dermis model. The collagen gel was prepared following the procedure reported in a publication [J. Cell Science, 102, 315 (1992) or J. Invest. Dermatol., 93, 792 (1989)]. Described specifically, a solution of HEPES (250 mM) in a 0.05 N sodium hydroxide solution, a 5-fold concentrate of DMEM (“GIBCO DMEM”, low glucose), FCS (2%, Fetal Calf Serum) and purified water were added under ice cooling to a collagen gel solution (product of Nitta Gelatin Inc., “type 1-A” (3.0 mg/mL, pH=3)), and finally, a suspension of human skin fibroblasts (derived from a human fore skin) was added. After the resulting mixture was thoroughly stirred to eliminate bubbles, 600 μL per well was added to 24-well dishes, followed by immediate warming at 37° C. in an incubator to effect gelation. Three to four hours later, 1 mL of serum-free DMEM medium was added to each of the wells, and the gels were separated at peripheries thereof from the corresponding dishes and were brought into a floating state. Eighteen hours after that, the medium was replaced with serum-free DMEM media which contained 100 to 10 μM of test substances, respectively, and incubation was conducted further for 48 hours.
Volume measurement of the gels was conducted by a weight measuring method similar to that reported in the publication [J. Cell Science, 102, 315 (1992)]. Described specifically, subsequent to immobilization with 10% formalin (4° C., 24 hours), the surface tension of water was reduced by the addition of Triton X100 (product of Wako Pure Chemical Industries) (1%), and the weights were measured.
Measurement results of relative volumes for the respective compounds as calculated supposing that the volume of the control was 100% are presented in Table 3.

[3] = system: ear skin pores of New Zealand white rabbits; assay: Rabbit ear skin pore size after topical application; type: in vivo; settings: 2% solution in ethanol, 8 weeks
Procedure: Three of New Zealand white rabbits (male, about 2.5 kg) which ear skin pores were conspicuous were used. A 2% solution of Compound 9 (solvent: ethanol) was applied onto the left ear of each rabbit, and the solvent was applied onto the right ear of the rabbit as a control site, each on the inner side of the ala, twice a day, 150 μL each time.
Upon elapsed time of 8 weeks after the initiation of the application, the skin was collected, and the size of skin pores was measured by image analysis. Described specifically, each rabbit was sacrificed and then, his ears were collected. A scalpel was inserted into each ear sample around the applied site, and the skin was peeled off above the cartilage. At that time, care was exercised to avoid stretching of the skin. The skin was spread over a cork board and then, subjected to biopsy with a punch of 6 mm in diameter to collect the skin from six (6) locations on each ear. The collection was conducted such that skin samples were obtained from the same locations on both the left and right ears. […] On the image, the areas of the individual skin pores were measured, so that the skin pore area on each punched skin sample was calculated. An average of the skin pore areas on the six punched skin samples was recorded as the size of skin pores on the corresponding ear sample of the corresponding rabbit.

[4] = Homo sapiens, Skin fibroblast, 48 h
[5] = 15 μM, 48 hours, relative volume, control = 100%
[6] = 50 μM, 48 hours, relative volume, control = 100%
[7] = Homo sapiens, Skin fibroblast, 15 μM, 48 hours, relative volume, control = 100%
[8] = Homo sapiens, Skin fibroblast, 50 μM, 48 hours, relative volume, control = 100%

1-tetradecylglycerol-3-phosphate monoarginine salt [Compound 37]
Contraction ratio (%) ([1]; 10 μM): 63.3%

CCCCCCCCCCCCCCCCCCOCC(O)COP(=O)([O-])[O-].[Na+].[Na+] (centres unmarked) [Compound 8, 1-octadecylglycerol-3-phosphate disodium salt]
Contraction ratio (%) ([1]; 50 μM): 77.0% | activity at 15 µM [2, 4]: 93% | activity at 50 µM [2, 4]: 77%

1-[2-(1,3,3-trimethylbutyl)-5,7,7-trimethyloctyl]-glycerol-3-phosphate monoarginine salt [Compound 35]
Contraction ratio (%) ([1]; 10 μM): 66.9%

1-(2-heptylundecyl)-glycerol-3-phosphate monoarginine salt [Compound 32]
Contraction ratio (%) ([1]; 10 μM): 52.2% | Average gel volume [2, 5]: 92% | Average gel volume [2, 6]: 75%

1-octadecylglycerol-3-phosphate monoarginine salt [Compound 39]
Contraction ratio (%) ([1]; 10 μM): 70.2%

CCCCCCCCCCCCO[C@@H]1O[C@H](COS(=O)(=O)[O-])[C@@H](O)[C@H](O)[C@H]1O.[Na+] [Compound 14, 1-β-O-dodecylglucopyranoside-6-sulfate sodium salt]
Contraction ratio (%) ([1]; 50 μM): 90.0%

CCCCCCCCCCCCOCC(O)COP(=O)(O)O (centres unmarked) [Compound 5, 1-dodecylglycerol-3-phosphate disodium salt]
activity at 15 µM [2, 4]: 94% | activity at 50 µM [2, 4]: 83%

CCCCCCCCCCCCCCCCOCC(O)COP(=O)(O)O (centres unmarked) [Compound 7, 1-hexadecylglycerol-3-phosphate disodium salt]
activity at 15 µM [2, 7]: 94% | activity at 50 µM [2, 8]: 79%

CCCCCCCCCCCCCCO[C@H]1O[C@H](COS(=O)(=O)[O-])[C@H](O)[C@H](O)[C@H]1O.[Na+] [Compound 23, 1-α-O-tetradecylgalactopyranoside-6-sulfate sodium salt]
Contraction ratio (%) ([1]; 10 μM): 60.7%

1-(2-decyltetradecyl)glycerol-3-phosphate monoarginine salt [Compound 41]
Contraction ratio (%) ([1]; 10 μM): 87.3%

CCCCCCCCCCCCCCOCC(O)COP(=O)(O)O (centres unmarked) [Compound 6, 1-tetradecylglycerol-3-phosphate disodium salt]
activity at 15 µM [2, 7]: 91% | activity at 50 µM [2, 8]: 88%

CCCCCCCCCCCCOCCCOS(=O)(=O)[O-].[Na+] [Compound 25, 1-dodecylpropanediol-3-sulfate sodium salt]
Contraction ratio (%) ([1]; 10 μM): 88.0%

1-(2-dodecylhexadecyl)-glycerol-3-phosphate monoarginine salt [Compound 42]
Contraction ratio (%) ([1]; 10 μM): 87.7%

1-oleylglycerol-3-phosphate monoarginine salt [Compound 40]
Contraction ratio (%) ([1]; 10 μM): 63.0%

1-(2-hexyldecyl)-glycerol-3-phosphate monoarginine salt [Compound 33]
Contraction ratio (%) ([1]; 10 μM): 63.4%

CCCCCCCCCC(CCCCCCC)COCC(O)COP(=O)([O-])[O-].[Na+].[Na+] (centres unmarked) [Compound 28, 1-(2-heptylundecyl)glycerol-3-phosphate disodium salt]
Contraction ratio (%) ([1]; 10 μM): 48.3%

CCCCCCCCCCCCCCCCCCOCC(O)COS(=O)(=O)O (centres unmarked) [Compound 2, 1-octadecylglycerol-3-sulfate sodium salt]
activity at 10 µM ([2]; Homo sapiens, Skin fibroblast, 10 μM, 48 hours, relative volume, control = 100%): 97% | activity at 30 µM ([2]; Homo sapiens, Skin fibroblast, 30 μM, 48 hours, relative volume, control = 100%): 92%

CC(C)CCCCCCCCCCCCCCCC(O)[C@@H](O)[C@@H](O)[C@H](O)[C@@H](CO)OS(=O)(=O)[O-].[Na+] (some centres unmarked) [Compound 30, 1-isostearylmannitol-5-sulfate sodium salt]
Contraction ratio (%) ([1]; 10 μM): 56.8%

1-dodecylglycerol-3-phosphate monoarginine salt [Compound 36]
Contraction ratio (%) ([1]; 10 μM): 71.3%

1-isostearylglycerol-3-phosphate monoarginine salt [Compound 31-A]
Contraction ratio (%) ([1]; 10 μM): 56.6% | Average gel volume [2, 5]: 94% | Average gel volume [2, 6]: 79%

CCCCCCCCCCCCCCO[C@@H]1O[C@H](COS(=O)(=O)[O-])[C@H](O)[C@H](O)[C@H]1O.[Na+] [Compound 24, 1-β-O-tetradecylgalactopyranoside-6-sulfate sodium salt]
Contraction ratio (%) ([1]; 10 μM): 84.9%

CC(C)CCCCCCCCCCCCCCCC(O)[C@@H](O)[C@@H](O)[C@H](O)[C@@H](CO)OP(=O)([O-])[O-].[Na+].[Na+] (some centres unmarked) [Compound 29, 1-isostearylmannitol-5-phosphate disodium salt]
Contraction ratio (%) ([1]; 10 μM): 53.3%

octylglucopyranosidesulfate sodium salt mixture [Compound 18]
Contraction ratio (%) ([1]; 50 μM): 90.1%

1-dodecylpropanediol-3-phosphate disodium salt [Compound 26]
Contraction ratio (%) ([1]; 1 μM): 73.5%

CC(C)CCCCCCCCCCCCCCCOCC(O)COP(=O)([O-])[O-].[Na+].[Na+] (centres unmarked) [Compound 9, 1-isostearylglycerol-3-phosphate disodium salt]
Contraction ratio (%) ([1]; 50 μM): 62.3% | skin pore area ([3]; 150 μL twice a day on ear, control sites 0.022 mm^2): 0.015 mm^2 | smaller in skin pore area than the control sites ([3]; twice a day, versus solvent-applied ear): about 30%

1-hexadecylglycerol-3-phosphate monoarginine salt [Compound 38]
Contraction ratio (%) ([1]; 10 μM): 81.4%

1-isostearylglycerol-3-phosphate monoarginine salt [Compound 31-B]
Contraction ratio (%) ([1]; 10 μM): 56.7%

dodecylglucopyranosidephosphate disodium salt mixture [Compound 27]
Contraction ratio (%) ([1]; 10 μM): 67.0%

1-(2-octyldodecyl)-glycerol-3-phosphate monoarginine salt [Compound 34]
Contraction ratio (%) ([1]; 10 μM): 67.3%
